The values that follow come from publication PMC6452685, “Lysyl-tRNA synthetase as a drug target in malaria and cryptosporidiosis” (Proceedings of the National Academy of Sciences of the …, 2019).

One assay relates to PfKRS1. The note with it: cited from earlier work.
Another assay concerns Pf(TM90C2B). The assay is described as follows: Drug resistant P. falciparum TM90C2B, [3H]-hypoxanthine incorporation. It counts as cell-based. The note with it: Plasmodium falciparum, atovaquone-resistant. The source says:
3.2 Cytotoxicity Studies (Dundee)
In vi t ro cy totox i ci ty s tudies can be ca rri ed out us i ng Hep G 2 (Human C aucas i an hepatocy te ca rci noma, ECACC cat. no. 850 114 30) us ed as i ndi cators f or g eneral mammal i an cel l tox i ci ty . […]
3.3 In vitro Cell Assay D ata Analysis (Du ndee) […]
as 0%. Qual i ty control c ri teri a for passi ng pl ates were as fol l ow s : Z’ > 0.
< 15 . T he f ormula used to calculate Z’ is 1- 3´ (St D e v _ hi gh + St D e v_ low) . […]
Al l EC50 Curve fitti ng was undertaken usi ng XLFi t versi on 4.2 usi ng Model 205 wi th the foll owi ng 4 paramet ri c equat i on: A + (?-A) ,where A=% i nhi bi ti on at bo ttom, B=% i nhi bi ti on at top, C= EC , […]
D= slope, x= inhibitor concentration a nd y= % inhibition. […]
was fixed to 100 only when at least 50% of inhibition was reached. […]
Hoffmann-La Ro che Ltd) a nd resi stant strai ns K1 and TM90C2B (fr om the Malaria Research an d Reference Reag ent Res ou rce C enter, accu rate d es cri pti ons of the g eneti c backg roun ds of thes e strains can be obtained at http://www.beiresources.org) were cultivated in a variation of the medium prev i ous l y des cri bed (5, 6), c onsi sti ng of RPMI 16 40 su ppl emented wi th 0.5% ALBUMAX® II, 25 m M Hepes , 25 mM NaHC O3 (pH 7. […] The re s ul t s were recorded and expressed as a percentage of the untreated controls. […]

The next assay deals with T1, CYP2D6 (Homo sapiens, UniProt P10635).
T1 construct: purchased Cypex, Dundee, UK; host or cells: bacterial membranes (bactosomes)
The assay is described as follows: Fluorescence-based CYP inhibition, CYP2D6. It counts as in vitro ADME. Here is the method:
4.7 F lu or e s ce nce-based CYP I nhibition usin g recombinantly expressed CYP b actosomes Fl uorogeni c C YP i nhi bi t i on s t udi es w ere c ondu ct ed at 37 °C i n 96-well, flat-bot t om, cl ear p ol y s t y rene pl at es. I ncubat i on mi xt ures cont ai ni ng Eas y C YP bact os omes (1000 pmol /ml , 10 mg /ml C y pex TM, Dundee, UK), fl uorogeni c substrate (Cypex TM) and 50 mM potas s i um phosphat e buffer (p H 7. 4) w er e prepared at t he fol l ow i ng fi nal concent rat i ons : C YP1A2, 5 pmol /ml + 35 µ M et hox y res orufi n (ER) ; CYP2C9, 10 pm ol/ml + 30 µM 7-methoxy-4-(tri fl uo romethy l )-coumari n (MFC ); C YP 2C 19, 5 pm ol /ml + 25 µM 3-cy ano-7-eth oxycoumarin (CEC); C YP 2D 6, 10 pmol /ml + 6 µM 7-meth oxy-4-(ami nomethy l )- coumari n (MAMC ); C YP 3A4, 10 pmol /ml + 1 µM diethoxyfluorescein (DEF) and 10 pmol /ml + 15 µM 7-benz y l ox y qui nol i ne (BQ ). […] 0125 ( 1A2 and 2C 9 onl y ) o r 0. 025 mg /ml (al l ot her i s oforms ). […] Positive control inhibitor, miconazole, was prepared as a 500 µM s olution in DMSO and similarly diluted.
For eac h i sofo rm, 2 20 µl of i ncubati on mi x was added to each wel l of a 96-well, flat-bot t om, cl ear pol y s t y rene pl at e. Al i quot s (5 µl) of each compound 5 conce ntrati on was then mi x ed wi th 220 µl of the incubation mix and pre-incubated at 37 °C for 5 min (final test compound concentration range: […]

T1 sequence (P10635 whole entry): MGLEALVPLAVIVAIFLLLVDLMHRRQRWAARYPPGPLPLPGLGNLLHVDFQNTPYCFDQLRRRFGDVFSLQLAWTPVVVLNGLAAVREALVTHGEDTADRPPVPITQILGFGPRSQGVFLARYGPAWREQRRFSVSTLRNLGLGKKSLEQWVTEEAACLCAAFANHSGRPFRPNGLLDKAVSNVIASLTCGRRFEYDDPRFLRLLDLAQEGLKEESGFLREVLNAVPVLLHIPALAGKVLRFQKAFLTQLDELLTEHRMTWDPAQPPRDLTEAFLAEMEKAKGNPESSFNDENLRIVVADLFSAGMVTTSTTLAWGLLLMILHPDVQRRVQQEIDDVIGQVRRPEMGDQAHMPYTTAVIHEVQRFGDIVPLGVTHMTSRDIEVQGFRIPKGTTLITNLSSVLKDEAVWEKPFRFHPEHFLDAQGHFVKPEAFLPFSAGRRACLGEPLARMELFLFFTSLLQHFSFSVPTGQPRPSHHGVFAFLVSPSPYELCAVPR

With `C[C@H]1CCC[C@H](C[C@H]2Cc3cc(O)cc(O)c3C(=O)O2)O1` [Compound 1, cladosporin, reference compound], in the assay on PfKRS1, the “selectivity for cytosolic PfKRS1 compared with HsKRS” value is given as greater than 100 fold. A word on the EC50: it is the concentration at which the effect is half-maximal. Higher therefore signals a less potent agent. What is called IC50 is the concentration at which inhibition is half-maximal. A lower IC50 goes with higher potency. In the assay with Pf(TM90C2B), `O=C(NCC1(O)CCC(F)(F)CC1)c1cc(=O)c2cc(F)ccc2o1` [Compound 5] showed an EC50 of 520 nM. Also, the half-inhibitory concentration (IC50) against CYP2D6 was greater than 10000 nM.
